Source: patent publication US6355799B1, “Substituted benzene compounds, process for their preparation, and herbicidal and defoliant compositions containing them” (ISK Americas Incorporated, priority 1997, dated 2002)

Legend:
Format in all cases: in vivo
[1] = system: barnyardgrass (Echinochloa crus-galli, ECHCG); experiment: Pre-emerge test, greenhouse herbicide activity screening; details: rating scale 0-100, 14 days after application
Method in brief: (§1)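 Compounds in acetone were track-sprayed at 187 l/ha, 15–1000 g ai/ha, onto sandy loam pots. Pre-emerge seeds were sown one day before spraying, with surface watering afterwards. Post-emerge plants were at the 2–3 leaf stage and sprayed with 0.25% v/v non-ionic surfactant. Injury was rated 0–100 at 14 days.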

[2] = system: common ragweed (Ambrosia artemisizfolia L., AMBEL); experiment: as above; details: rating scale 0-100, 14 days after application
Method in brief: as §1

[3] = system: velvetleaf (Abutilon theophrasti, ABUTH); experiment: as above; details: rating scale 0-100, 14 days after application
Method in brief: as §1

[4] = system: johnsongrass (Sorghum halepense, SORHA); experiment: as above; details: rating scale 0-100, 14 days after application
Method in brief: as §1

[5] = system: large crabgrass (Digitaria sanguinalis, DIGSA); experiment: as above; details: rating scale 0-100, 14 days after application
Method in brief: as §1

[6] = system: ivyleaf morningglory (Ipomoea hederacea, IPOHE); experiment: as above; details: rating scale 0-100, 14 days after application
Method in brief: as §1

[7] = system: lambsquarters (Chenopodium album, CHEAL); experiment: as above; details: rating scale 0-100, 14 days after application
Method in brief: as §1

[8] = system: green foxtail (Setaria viridis, SETVI); experiment: as above; details: rating scale 0-100, 14 days after application
Method in brief: as §1

[9] = system: sicklepod (Cassia obtusifolia, CASOB); experiment: as above; details: rating scale 0-100, 14 days after application
Method in brief: as §1

[10] = system: barnyardgrass (Echinochloa crus-galli, ECHCG); experiment: Post-emerge test, greenhouse herbicide activity screening; details: rating scale 0-100 (0 no damage, 100 complete death), 14 days after application
Method in brief: (§2)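 Visual ratings on a 0-100 scale (0 no damage, 100 all plants dead) were taken at 14 days after treatment. Rates of 15-1000 g ai/ha in acetone, 187 l/ha, were sprayed onto soil one day after planting (pre-emerge) or onto 2-3 leaf plants with 0.25% v/v surfactant (post-emerge).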

[11] = system: velvetleaf (Abutilon theophrasti, ABUTH); experiment: as above; details: rating scale 0-100 (0 no damage, 100 complete death), 14 days after application
Method in brief: as §2

[12] = system: johnsongrass (Sorghum halepense, SORHA); experiment: as above; details: rating scale 0-100 (0 no damage, 100 complete death), 14 days after application
Method in brief: as §2

[13] = system: large crabgrass (Digitaria sanguinalis, DIGSA); experiment: as above; details: rating scale 0-100 (0 no damage, 100 complete death), 14 days after application
Method in brief: as §2

[14] = system: redroot pigweed (Amaranthus retroflexus, AMARE); experiment: as above; details: rating scale 0-100 (0 no damage, 100 complete death), 14 days after application
Method in brief: as §2

[15] = system: ivyleaf morningglory (Ipomoea hederacea, IPOHE); experiment: as above; details: rating scale 0-100 (0 no damage, 100 complete death), 14 days after application
Method in brief: as §2

[16] = system: lambsquarters (Chenopodium album, CHEAL); experiment: as above; details: rating scale 0-100 (0 no damage, 100 complete death), 14 days after application
Method in brief: as §2

[17] = system: green foxtail (Setaria viridis, SETVI); experiment: as above; details: rating scale 0-100 (0 no damage, 100 complete death), 14 days after application
Method in brief: as §2

[18] = system: sicklepod (Cassia obtusifolia, CASOB); experiment: as above; details: rating scale 0-100 (0 no damage, 100 complete death), 14 days after application
Method in brief: as §2

[19] = system: redroot pigweed (Amaranthus retroflexus, AMARE); experiment: Pre-emerge test, greenhouse herbicide activity screening; details: rating scale 0-100, 14 days after application
Method in brief: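 Rating: 0–100 visual injury, 14 DAA. Application: acetone, 187 l/ha, 15–1000 g ai/ha, flat-fan track sprayer with nozzle 40–45 cm above soil or canopy. Post-emerge runs used 0.25% v/v surfactant on 2–3 leaf plants.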

[20] = system: field corn (Zea mays L., var. Dekalb 535, CORN); experiment: Post-emerge test, crop safety; details: rating scale 0-100 (0 no damage, 100 complete death), 14 days after application
Method in brief: as §1

[21] = system: upland rice (Oryza sp., var. Tebonnet, RICE); experiment: Post-emerge test, crop safety; details: rating scale 0-100 (0 no damage, 100 complete death), 14 days after application
Method in brief: as §1

[22] = system: field corn (Zea mays L., var. Dekalb 535, CORN); experiment: Pre-emerge test, crop safety; details: rating scale 0-100, 14 days after application
Method in brief: (§3)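 Plants grown in 10 cm pots of sandy loam mix received acetone-dissolved compounds through a moving flat-fan nozzle. Doses ranged from 15 to 1000 g ai/ha. Pre-emerge pots were seeded one day earlier, post-emerge pots 8–21 days earlier. Fourteen days on, each pot was graded 0–100 for damage.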

[23] = system: upland rice (Oryza sp., var. Tebonnet, RICE); experiment: Pre-emerge test, crop safety; details: rating scale 0-100, 14 days after application
Method in brief: as §3

CCCCCOC(=O)C(Cl)Cc1c(OC)c(Cl)cc(F)c1-n1c(=O)cc(C(F)(F)F)n(C)c1=O (single isomer, unassigned) [14-10]
Pre-emerge herbicidal activity, phytotoxicity rating ECHCG ([1]; 63 g ai/ha): 0
Pre-emerge herbicidal activity, phytotoxicity rating ECHCG ([1]; 250 g ai/ha): 0
Pre-emerge herbicidal activity, phytotoxicity rating AMBEL ([2]; 63 g ai/ha): 50
Pre-emerge herbicidal activity, phytotoxicity rating AMBEL ([2]; 250 g ai/ha): 100
Pre-emerge herbicidal activity, phytotoxicity rating ABUTH ([3]; 63 g ai/ha): 0
Pre-emerge herbicidal activity, phytotoxicity rating ABUTH ([3]; 250 g ai/ha): 90
Pre-emerge herbicidal activity, phytotoxicity rating SORHA ([4]; 63 g ai/ha): 0
Pre-emerge herbicidal activity, phytotoxicity rating SORHA ([4]; 250 g ai/ha): 30
Pre-emerge herbicidal activity, phytotoxicity rating DIGSA ([5]; 63 g ai/ha): 0
Pre-emerge herbicidal activity, phytotoxicity rating DIGSA ([5]; 250 g ai/ha): 90
Pre-emerge herbicidal activity, phytotoxicity rating IPOHE ([6]; 63 g ai/ha): 0
Pre-emerge herbicidal activity, phytotoxicity rating IPOHE ([6]; 250 g ai/ha): 70
Pre-emerge herbicidal activity, phytotoxicity rating CHEAL ([7]; 63 g ai/ha): 0
Pre-emerge herbicidal activity, phytotoxicity rating CHEAL ([7]; 250 g ai/ha): 100
Pre-emerge herbicidal activity, phytotoxicity rating SETVI ([8]; 63 g ai/ha): 0
Pre-emerge herbicidal activity, phytotoxicity rating SETVI ([8]; 250 g ai/ha): 0
Pre-emerge herbicidal activity, phytotoxicity rating CASOB ([9]; 63 g ai/ha): 0
Pre-emerge herbicidal activity, phytotoxicity rating CASOB ([9]; 250 g ai/ha): 0
Post-emerge Herbicidal Activity, phytotoxicity rating ECHCG ([10]; Rate 63 g ai/ha): 95
Post-emerge Herbicidal Activity, phytotoxicity rating ECHCG ([10]; Rate 250 g ai/ha): 100
Post-emerge Herbicidal Activity, phytotoxicity rating ABUTH ([11]; Rate 63 g ai/ha): 80
Post-emerge Herbicidal Activity, phytotoxicity rating ABUTH ([11]; Rate 250 g ai/ha): 100
Post-emerge Herbicidal Activity, phytotoxicity rating SORHA ([12]; Rate 63 g ai/ha): 20
Post-emerge Herbicidal Activity, phytotoxicity rating SORHA ([12]; Rate 250 g ai/ha): 50
Post-emerge Herbicidal Activity, phytotoxicity rating DIGSA ([13]; Rate 63 g ai/ha): 10
Post-emerge Herbicidal Activity, phytotoxicity rating DIGSA ([13]; Rate 250 g ai/ha): 100
Post-emerge Herbicidal Activity, phytotoxicity rating AMARE ([14]; Rate 63 g ai/ha): 90
Post-emerge Herbicidal Activity, phytotoxicity rating AMARE ([14]; Rate 250 g ai/ha): 100
Post-emerge Herbicidal Activity, phytotoxicity rating IPOHE ([15]; Rate 63 g ai/ha): 70
Post-emerge Herbicidal Activity, phytotoxicity rating IPOHE ([15]; Rate 250 g ai/ha): 80
Post-emerge Herbicidal Activity, phytotoxicity rating CHEAL ([16]; Rate 63 g ai/ha): 90
Post-emerge Herbicidal Activity, phytotoxicity rating CHEAL ([16]; Rate 250 g ai/ha): 100
Post-emerge Herbicidal Activity, phytotoxicity rating SETVI ([17]; Rate 63 g ai/ha): 50
Post-emerge Herbicidal Activity, phytotoxicity rating SETVI ([17]; Rate 250 g ai/ha): 90
Post-emerge Herbicidal Activity, phytotoxicity rating CASOB ([18]; Rate 63 g ai/ha): 80
Post-emerge Herbicidal Activity, phytotoxicity rating CASOB ([18]; Rate 250 g ai/ha): 90
Pre-emerge herbicidal activity, phytotoxicity rating AMARE ([19]; 63 g ai/ha): 100
Pre-emerge herbicidal activity, phytotoxicity rating AMARE ([19]; 250 g ai/ha): 100
Post-emerge phytotoxicity rating CORN (crop damage) ([20]; Rate 63 g ai/ha): 20
Post-emerge phytotoxicity rating CORN (crop damage) ([20]; Rate 250 g ai/ha): 60
Post-emerge phytotoxicity rating RICE (crop damage) ([21]; Rate 63 g ai/ha): 0
Post-emerge phytotoxicity rating RICE (crop damage) ([21]; Rate 250 g ai/ha): 20
Pre-emerge phytotoxicity rating, crop damage CORN ([22]; 63 g ai/ha): 0
Pre-emerge phytotoxicity rating, crop damage CORN ([22]; 250 g ai/ha): 40
Pre-emerge phytotoxicity rating, crop damage RICE ([23]; 63 g ai/ha): 20
Pre-emerge phytotoxicity rating, crop damage RICE ([23]; 250 g ai/ha): 30
